Laboratory results taken from the supplement of paper PMC12076712.

Key:
Test in all cases: pIC50, kinobeads binding competition
Conditions in all cases: cell material: Jurkat lysate
EIF2AK4 = EIF2AK4 (UniProt Q9P2K8)
IRAK4 = target: T1, IRAK4 (UniProt Q9NWZ3)
T1 sequence (whole entry): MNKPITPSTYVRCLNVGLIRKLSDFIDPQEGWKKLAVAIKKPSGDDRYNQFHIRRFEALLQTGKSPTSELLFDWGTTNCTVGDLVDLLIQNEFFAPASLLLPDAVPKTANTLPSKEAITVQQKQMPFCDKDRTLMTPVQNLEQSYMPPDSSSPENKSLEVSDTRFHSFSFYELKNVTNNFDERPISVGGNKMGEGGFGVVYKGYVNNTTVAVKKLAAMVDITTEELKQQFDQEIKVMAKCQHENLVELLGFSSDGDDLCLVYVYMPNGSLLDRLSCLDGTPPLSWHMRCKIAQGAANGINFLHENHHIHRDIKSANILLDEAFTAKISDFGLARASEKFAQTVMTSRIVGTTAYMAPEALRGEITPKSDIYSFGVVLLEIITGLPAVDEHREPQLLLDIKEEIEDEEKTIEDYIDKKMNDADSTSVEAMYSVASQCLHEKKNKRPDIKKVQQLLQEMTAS

MARK2 = MARK2 (UniProt Q7KZI7)
Sequence of MARK2 (Q7KZI7 whole entry): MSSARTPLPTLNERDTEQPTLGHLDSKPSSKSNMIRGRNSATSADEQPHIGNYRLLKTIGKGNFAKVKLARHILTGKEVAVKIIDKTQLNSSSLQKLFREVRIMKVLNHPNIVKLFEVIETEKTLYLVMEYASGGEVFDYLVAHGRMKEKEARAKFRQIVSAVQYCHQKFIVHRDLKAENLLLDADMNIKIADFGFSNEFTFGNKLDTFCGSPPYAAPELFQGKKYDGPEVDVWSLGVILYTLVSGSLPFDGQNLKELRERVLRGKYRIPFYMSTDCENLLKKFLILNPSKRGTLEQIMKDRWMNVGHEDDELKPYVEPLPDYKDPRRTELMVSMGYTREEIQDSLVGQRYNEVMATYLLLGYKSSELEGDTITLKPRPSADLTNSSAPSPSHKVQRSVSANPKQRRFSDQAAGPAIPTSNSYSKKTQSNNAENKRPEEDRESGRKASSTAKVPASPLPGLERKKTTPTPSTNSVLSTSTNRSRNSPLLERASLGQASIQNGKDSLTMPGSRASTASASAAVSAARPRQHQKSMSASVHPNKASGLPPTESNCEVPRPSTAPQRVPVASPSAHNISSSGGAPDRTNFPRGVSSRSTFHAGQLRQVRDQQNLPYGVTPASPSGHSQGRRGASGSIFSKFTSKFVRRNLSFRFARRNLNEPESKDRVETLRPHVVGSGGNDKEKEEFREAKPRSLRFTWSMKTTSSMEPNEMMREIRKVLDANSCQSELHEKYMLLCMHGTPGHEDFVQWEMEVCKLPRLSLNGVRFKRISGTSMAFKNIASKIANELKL

MELK = MELK (UniProt Q14680)
PRKACB = PRKACB (UniProt P22694)
UHMK1 = target: T2, UHMK1 (UniProt Q8TAS1)
T2 sequence (whole entry): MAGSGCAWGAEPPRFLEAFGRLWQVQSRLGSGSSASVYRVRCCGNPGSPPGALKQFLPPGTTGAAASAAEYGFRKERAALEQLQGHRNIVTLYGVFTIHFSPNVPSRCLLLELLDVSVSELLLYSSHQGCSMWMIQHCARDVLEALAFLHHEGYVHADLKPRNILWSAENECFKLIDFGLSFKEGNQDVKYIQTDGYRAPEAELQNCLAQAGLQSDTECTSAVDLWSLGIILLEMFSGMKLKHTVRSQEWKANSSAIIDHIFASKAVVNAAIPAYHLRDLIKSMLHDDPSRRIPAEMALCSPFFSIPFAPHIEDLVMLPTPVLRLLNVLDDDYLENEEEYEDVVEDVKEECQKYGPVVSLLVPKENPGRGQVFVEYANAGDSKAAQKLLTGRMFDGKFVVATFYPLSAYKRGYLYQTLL

UniProt O00444 = target: T3, UniProt O00444
T3 sequence (whole entry): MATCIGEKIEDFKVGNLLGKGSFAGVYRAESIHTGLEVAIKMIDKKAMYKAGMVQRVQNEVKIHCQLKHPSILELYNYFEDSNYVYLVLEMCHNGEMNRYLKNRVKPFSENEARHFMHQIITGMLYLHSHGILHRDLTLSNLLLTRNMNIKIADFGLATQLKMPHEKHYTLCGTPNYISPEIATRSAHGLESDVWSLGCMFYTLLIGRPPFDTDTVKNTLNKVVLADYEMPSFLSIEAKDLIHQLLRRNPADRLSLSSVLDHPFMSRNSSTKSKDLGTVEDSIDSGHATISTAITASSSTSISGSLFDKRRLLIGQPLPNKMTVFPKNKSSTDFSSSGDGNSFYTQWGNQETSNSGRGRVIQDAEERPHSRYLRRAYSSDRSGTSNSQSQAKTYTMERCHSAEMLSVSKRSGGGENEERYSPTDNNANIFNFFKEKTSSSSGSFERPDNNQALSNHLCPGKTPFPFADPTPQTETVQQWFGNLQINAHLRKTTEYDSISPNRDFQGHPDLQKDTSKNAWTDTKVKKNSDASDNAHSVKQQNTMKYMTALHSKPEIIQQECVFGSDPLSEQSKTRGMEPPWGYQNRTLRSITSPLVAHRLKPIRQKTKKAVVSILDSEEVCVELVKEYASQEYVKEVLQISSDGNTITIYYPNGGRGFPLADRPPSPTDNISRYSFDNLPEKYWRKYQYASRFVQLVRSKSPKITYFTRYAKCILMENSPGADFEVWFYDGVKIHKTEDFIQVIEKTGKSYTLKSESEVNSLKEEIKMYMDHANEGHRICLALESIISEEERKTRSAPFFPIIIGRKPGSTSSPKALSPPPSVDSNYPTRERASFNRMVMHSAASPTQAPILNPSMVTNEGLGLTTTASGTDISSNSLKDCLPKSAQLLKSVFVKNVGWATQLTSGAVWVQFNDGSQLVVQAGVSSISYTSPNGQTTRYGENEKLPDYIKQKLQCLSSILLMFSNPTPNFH

UniProt O94804 = target: UniProt O94804
Sequence of UniProt O94804 (O94804 whole entry, looked up): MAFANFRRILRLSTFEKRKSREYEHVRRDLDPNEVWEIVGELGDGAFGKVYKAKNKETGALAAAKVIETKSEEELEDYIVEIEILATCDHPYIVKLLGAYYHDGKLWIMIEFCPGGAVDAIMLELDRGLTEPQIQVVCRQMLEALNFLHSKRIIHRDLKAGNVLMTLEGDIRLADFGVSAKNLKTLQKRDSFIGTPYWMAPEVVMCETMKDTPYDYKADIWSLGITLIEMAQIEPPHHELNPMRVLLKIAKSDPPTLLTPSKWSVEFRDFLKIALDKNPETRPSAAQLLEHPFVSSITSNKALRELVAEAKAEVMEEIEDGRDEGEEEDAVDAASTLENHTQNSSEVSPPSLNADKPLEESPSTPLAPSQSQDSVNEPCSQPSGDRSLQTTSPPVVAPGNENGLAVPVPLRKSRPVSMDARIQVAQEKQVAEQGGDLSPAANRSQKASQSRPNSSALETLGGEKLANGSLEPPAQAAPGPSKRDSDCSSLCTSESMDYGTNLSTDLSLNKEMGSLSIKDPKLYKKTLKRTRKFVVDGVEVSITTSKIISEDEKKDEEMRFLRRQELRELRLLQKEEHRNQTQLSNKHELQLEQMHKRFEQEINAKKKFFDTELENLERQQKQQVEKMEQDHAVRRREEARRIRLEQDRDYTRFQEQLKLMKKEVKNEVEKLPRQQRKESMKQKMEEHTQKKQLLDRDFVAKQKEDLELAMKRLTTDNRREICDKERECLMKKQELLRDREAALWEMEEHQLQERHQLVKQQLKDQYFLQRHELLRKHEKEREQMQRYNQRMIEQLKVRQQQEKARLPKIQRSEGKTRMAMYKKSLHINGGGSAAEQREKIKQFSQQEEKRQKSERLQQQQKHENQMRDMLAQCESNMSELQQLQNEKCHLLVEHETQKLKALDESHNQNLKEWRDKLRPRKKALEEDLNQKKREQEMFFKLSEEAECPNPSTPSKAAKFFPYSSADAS

UniProt P07947 = target: UniProt P07947
Sequence of UniProt P07947 (P07947 whole entry, looked up): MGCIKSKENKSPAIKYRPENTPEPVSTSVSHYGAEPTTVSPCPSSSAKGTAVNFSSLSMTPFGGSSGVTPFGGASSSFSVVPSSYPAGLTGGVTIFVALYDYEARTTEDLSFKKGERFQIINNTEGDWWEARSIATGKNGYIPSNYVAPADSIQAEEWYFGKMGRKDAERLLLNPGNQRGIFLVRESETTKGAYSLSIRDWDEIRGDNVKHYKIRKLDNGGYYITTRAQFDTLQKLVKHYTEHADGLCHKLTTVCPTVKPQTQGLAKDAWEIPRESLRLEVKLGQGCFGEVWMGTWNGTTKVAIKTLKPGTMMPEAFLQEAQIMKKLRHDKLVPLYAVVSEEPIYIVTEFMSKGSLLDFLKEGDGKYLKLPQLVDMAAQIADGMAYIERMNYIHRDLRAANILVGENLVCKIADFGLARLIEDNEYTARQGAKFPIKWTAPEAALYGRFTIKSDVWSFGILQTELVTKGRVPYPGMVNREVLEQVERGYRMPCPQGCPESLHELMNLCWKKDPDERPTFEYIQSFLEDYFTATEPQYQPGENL

UniProt Q13233 = target: UniProt Q13233
UniProt Q16513 = target: UniProt Q16513
Sequence of UniProt Q16513 (Q16513 whole entry, looked up): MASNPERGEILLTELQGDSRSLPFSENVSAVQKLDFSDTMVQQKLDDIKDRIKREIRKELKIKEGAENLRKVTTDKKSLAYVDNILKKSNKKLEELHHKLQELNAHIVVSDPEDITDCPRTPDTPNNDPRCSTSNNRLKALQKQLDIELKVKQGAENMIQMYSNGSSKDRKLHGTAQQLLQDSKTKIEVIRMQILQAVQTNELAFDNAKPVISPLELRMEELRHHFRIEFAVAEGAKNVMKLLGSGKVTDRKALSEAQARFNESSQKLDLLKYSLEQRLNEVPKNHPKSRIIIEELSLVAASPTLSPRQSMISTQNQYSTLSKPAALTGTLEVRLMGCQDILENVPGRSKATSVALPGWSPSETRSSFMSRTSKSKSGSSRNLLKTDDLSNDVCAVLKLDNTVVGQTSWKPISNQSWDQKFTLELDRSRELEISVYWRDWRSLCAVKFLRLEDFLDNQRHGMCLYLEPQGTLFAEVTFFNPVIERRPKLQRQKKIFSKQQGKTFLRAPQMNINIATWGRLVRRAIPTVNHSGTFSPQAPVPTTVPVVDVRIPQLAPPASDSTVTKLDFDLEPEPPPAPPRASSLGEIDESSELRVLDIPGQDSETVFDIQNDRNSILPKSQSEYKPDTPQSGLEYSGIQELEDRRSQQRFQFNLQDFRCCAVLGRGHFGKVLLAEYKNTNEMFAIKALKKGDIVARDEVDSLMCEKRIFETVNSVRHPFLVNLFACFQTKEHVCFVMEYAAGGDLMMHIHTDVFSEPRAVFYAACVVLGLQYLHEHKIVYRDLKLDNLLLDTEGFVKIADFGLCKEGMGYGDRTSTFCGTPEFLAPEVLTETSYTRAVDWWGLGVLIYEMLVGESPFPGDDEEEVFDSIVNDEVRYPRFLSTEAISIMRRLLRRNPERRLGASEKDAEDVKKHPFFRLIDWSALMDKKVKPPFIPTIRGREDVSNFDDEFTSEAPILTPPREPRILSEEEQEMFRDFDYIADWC

UniProt Q8TBX8 = target: T4, UniProt Q8TBX8
T4 sequence (whole entry): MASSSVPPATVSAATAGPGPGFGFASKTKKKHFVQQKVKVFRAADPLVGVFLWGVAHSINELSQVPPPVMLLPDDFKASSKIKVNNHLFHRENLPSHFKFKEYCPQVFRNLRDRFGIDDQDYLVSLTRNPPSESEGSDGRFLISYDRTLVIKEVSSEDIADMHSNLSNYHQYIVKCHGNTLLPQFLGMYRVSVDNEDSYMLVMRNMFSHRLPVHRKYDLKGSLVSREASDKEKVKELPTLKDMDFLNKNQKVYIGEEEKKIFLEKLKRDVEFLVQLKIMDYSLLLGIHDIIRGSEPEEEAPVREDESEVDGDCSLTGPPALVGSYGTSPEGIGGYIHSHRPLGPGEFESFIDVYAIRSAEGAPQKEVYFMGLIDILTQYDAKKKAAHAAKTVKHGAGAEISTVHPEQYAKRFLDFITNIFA

Sequence of EIF2AK4 (Q9P2K8 whole entry): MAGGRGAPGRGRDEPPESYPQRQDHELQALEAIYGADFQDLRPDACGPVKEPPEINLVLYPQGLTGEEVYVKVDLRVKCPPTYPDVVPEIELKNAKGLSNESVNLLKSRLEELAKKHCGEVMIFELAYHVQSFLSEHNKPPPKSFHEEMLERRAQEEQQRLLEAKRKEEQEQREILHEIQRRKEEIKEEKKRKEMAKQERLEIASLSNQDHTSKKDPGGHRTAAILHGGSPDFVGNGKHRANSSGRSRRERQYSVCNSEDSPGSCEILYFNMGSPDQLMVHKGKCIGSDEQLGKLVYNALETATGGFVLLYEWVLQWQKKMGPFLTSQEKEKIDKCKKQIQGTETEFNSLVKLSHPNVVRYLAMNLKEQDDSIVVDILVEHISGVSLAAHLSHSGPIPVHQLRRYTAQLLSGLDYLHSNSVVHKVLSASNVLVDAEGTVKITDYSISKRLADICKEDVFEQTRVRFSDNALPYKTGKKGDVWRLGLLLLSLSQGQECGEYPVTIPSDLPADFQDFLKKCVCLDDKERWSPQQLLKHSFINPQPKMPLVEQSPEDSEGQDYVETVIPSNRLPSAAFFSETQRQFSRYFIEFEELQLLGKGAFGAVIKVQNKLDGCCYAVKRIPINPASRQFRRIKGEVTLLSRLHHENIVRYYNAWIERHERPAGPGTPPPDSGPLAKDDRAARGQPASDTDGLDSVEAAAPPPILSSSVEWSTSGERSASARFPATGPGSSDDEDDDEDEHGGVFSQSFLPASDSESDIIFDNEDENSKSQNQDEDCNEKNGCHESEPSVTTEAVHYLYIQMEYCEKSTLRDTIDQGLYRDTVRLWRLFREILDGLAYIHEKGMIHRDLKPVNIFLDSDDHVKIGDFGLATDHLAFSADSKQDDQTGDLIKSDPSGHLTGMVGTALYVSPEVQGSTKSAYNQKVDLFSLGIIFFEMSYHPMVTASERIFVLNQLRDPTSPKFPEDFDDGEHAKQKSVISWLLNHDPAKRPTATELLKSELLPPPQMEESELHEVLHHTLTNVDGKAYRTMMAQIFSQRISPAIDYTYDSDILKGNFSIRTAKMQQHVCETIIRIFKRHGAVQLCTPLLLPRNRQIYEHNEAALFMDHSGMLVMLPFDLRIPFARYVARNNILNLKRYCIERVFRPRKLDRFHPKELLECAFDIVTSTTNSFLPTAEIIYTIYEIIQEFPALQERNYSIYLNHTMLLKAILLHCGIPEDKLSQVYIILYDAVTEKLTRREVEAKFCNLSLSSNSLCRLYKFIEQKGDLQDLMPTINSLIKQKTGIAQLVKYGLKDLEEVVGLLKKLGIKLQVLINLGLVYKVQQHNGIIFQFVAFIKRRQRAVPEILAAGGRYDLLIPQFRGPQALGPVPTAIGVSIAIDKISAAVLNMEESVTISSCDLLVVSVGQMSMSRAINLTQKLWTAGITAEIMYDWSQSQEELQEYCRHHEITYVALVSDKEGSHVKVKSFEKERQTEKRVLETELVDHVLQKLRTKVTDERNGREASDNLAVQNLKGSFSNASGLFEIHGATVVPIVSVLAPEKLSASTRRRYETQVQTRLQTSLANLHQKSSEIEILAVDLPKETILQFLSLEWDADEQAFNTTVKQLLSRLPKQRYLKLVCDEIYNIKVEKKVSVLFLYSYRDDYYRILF

- pIC50 (EIF2AK4): < 4.52
- pIC50 (IRAK4): < 4.52
- pIC50 (MARK2): < 4.52
- pIC50 (MELK): < 4.52
- pIC50 (PRKACB): < 4.52
- pIC50 (UHMK1): < 4.52
- pIC50 (UniProt O00444): < 4.52
- pIC50 (UniProt O94804): < 4.52
- pIC50 (UniProt P07947): < 4.52
- pIC50 (UniProt Q13233): < 4.52
- pIC50 (UniProt Q16513): < 4.52
- pIC50 (UniProt Q8TBX8): < 4.52
Structure (SMILES): CCc1cnn2c(NCc3ccc[n+]([O-])c3)cc(N3CCCC[C@H]3CCO)nc12 [dinaciclib]
